From ChEMBL document CHEMBL4507281, “Data for DCP probe BI-4394” (2021)

Key:
Settings in all cases: Compound concentration 100.0 nM
[1] = target: Ephrin type-B receptor 3 (Homo sapiens) (UniProt P54753)
[2] = target: Transient receptor potential cation channel subfamily M member 6 (Homo sapiens) (UniProt Q9BX84)
[3] = target: Serine/threonine-protein kinase SIK3 (Homo sapiens) (UniProt Q9Y2K2)
[4] = target: Tyrosine-protein kinase Fer (Homo sapiens) (UniProt P16591)
[5] = target: Macrophage colony-stimulating factor 1 receptor (Homo sapiens) (UniProt P07333)
[6] = target: Ankyrin repeat and protein kinase domain-containing protein 1 (Homo sapiens) (UniProt Q8NFD2)
[7] = system: ALK tyrosine kinase receptor (Homo sapiens), Q9UM73 [C1156Y]
[8] = system: Phosphatidylinositol 4,5-bisphosphate 3-kinase catalytic subunit alpha isoform (Homo sapiens), P42336 [E542K]
[9] = target: RAC-gamma serine/threonine-protein kinase (Homo sapiens) (UniProt Q9Y243)
[10] = system: Mast/stem cell growth factor receptor Kit (Homo sapiens), P10721 [V559D]
[11] = target: Interferon-induced, double-stranded RNA-activated protein kinase (Homo sapiens) (UniProt P19525)
[12] = target: Mitogen-activated protein kinase 3 (Homo sapiens) (UniProt P27361)
[13] = target: T1, Protein kinase C epsilon type (Homo sapiens) (UniProt Q02156)
T1 sequence (whole entry): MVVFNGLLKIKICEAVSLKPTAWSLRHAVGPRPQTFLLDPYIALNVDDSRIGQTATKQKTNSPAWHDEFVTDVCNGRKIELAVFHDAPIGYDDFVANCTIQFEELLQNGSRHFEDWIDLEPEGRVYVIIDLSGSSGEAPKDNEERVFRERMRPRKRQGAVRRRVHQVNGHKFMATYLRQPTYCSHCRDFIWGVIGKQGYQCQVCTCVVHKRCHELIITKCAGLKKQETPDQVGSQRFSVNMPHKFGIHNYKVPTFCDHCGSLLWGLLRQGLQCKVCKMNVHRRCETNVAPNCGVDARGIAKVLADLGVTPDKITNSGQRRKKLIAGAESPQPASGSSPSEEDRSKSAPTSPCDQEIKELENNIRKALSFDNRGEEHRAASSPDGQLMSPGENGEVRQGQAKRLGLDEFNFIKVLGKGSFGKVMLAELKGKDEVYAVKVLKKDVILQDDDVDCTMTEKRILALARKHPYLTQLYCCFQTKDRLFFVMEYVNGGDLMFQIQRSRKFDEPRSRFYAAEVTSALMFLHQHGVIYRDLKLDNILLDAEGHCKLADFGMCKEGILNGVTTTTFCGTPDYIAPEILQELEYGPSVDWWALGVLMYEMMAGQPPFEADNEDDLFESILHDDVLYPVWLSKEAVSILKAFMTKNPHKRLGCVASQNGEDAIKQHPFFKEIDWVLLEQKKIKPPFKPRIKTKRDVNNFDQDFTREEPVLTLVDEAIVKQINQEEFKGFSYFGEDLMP

[14] = target: Ribosomal protein S6 kinase alpha-2 (Homo sapiens) (UniProt Q15349)
[15] = target: Ephrin type-A receptor 5 (Homo sapiens) (UniProt P54756)
[16] = system: Epidermal growth factor receptor (Homo sapiens), P00533 [L861Q]
[17] = target: Casein kinase I isoform gamma-1 (Homo sapiens) (UniProt Q9HCP0)
[18] = target: Cyclin-dependent kinase 9 (Homo sapiens) (UniProt P50750)
[19] = system: Mast/stem cell growth factor receptor Kit (Homo sapiens), P10721 [D816H]
[20] = target: T2, Serine/threonine-protein kinase Chk1 (Homo sapiens) (UniProt O14757)
T2 sequence (whole entry): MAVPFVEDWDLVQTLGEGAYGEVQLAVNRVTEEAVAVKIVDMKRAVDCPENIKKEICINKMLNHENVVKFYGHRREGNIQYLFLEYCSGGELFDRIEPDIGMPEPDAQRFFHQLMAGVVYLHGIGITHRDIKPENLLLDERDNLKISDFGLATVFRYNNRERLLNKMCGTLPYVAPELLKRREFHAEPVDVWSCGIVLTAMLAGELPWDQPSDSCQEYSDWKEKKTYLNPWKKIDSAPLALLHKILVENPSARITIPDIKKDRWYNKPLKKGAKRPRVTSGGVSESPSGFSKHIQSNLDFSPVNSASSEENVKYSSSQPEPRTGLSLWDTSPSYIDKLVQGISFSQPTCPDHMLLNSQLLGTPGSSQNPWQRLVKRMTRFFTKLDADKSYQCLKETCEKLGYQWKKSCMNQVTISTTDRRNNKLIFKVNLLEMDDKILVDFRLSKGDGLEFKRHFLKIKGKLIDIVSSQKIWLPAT

[21] = system: Hepatocyte growth factor receptor (Homo sapiens), P08581 [M1250T]
[22] = target: Serine/threonine-protein kinase 32B (Homo sapiens) (UniProt Q9NY57)
[23] = target: Homeodomain-interacting protein kinase 3 (Homo sapiens) (UniProt Q9H422)
[24] = target: Serine/threonine-protein kinase PLK2 (Homo sapiens) (UniProt Q9NYY3)
[25] = target: Serine/threonine-protein kinase WNK2 (Homo sapiens) (UniProt Q9Y3S1)
[26] = target: Platelet-derived growth factor receptor alpha (Homo sapiens) (UniProt P16234)
[27] = target: Serine/threonine-protein kinase NIM1 (Homo sapiens) (UniProt Q8IY84)
[28] = target: MAP kinase-interacting serine/threonine-protein kinase 1 (Homo sapiens) (UniProt Q9BUB5)
[29] = target: cAMP-dependent protein kinase catalytic subunit alpha (Homo sapiens) (UniProt P17612)

Measured: residual activity

Chain of Mast/stem cell growth factor receptor Kit (Homo sapiens), P10721 [V559D] (P10721 whole entry V559D): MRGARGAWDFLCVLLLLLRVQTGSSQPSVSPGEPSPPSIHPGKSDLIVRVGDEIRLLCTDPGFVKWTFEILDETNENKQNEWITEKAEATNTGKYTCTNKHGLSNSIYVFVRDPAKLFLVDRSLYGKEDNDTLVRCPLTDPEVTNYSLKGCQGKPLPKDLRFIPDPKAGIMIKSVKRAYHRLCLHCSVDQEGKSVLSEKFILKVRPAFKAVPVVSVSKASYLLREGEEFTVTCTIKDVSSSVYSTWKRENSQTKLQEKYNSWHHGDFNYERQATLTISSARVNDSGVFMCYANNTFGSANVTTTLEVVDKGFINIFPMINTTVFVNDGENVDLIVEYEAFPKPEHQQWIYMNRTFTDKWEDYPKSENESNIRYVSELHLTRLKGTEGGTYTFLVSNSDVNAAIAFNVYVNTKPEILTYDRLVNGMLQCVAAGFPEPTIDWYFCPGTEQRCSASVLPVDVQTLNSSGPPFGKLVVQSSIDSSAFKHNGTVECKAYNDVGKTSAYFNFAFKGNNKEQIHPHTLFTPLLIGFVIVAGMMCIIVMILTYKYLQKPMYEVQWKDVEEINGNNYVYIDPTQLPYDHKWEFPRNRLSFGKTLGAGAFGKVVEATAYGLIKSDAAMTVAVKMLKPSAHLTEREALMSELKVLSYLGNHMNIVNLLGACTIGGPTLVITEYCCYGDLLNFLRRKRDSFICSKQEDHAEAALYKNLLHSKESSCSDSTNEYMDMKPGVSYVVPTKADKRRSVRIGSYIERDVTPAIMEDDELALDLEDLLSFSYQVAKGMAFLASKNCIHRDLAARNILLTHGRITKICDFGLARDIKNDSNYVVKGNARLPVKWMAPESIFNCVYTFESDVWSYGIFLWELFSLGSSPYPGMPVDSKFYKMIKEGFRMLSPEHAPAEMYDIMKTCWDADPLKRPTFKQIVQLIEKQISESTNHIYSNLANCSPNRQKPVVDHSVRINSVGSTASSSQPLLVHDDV
Chain of Ankyrin repeat and protein kinase domain-containing protein 1 (Homo sapiens) (Q8NFD2 whole entry, the tested form may be a part): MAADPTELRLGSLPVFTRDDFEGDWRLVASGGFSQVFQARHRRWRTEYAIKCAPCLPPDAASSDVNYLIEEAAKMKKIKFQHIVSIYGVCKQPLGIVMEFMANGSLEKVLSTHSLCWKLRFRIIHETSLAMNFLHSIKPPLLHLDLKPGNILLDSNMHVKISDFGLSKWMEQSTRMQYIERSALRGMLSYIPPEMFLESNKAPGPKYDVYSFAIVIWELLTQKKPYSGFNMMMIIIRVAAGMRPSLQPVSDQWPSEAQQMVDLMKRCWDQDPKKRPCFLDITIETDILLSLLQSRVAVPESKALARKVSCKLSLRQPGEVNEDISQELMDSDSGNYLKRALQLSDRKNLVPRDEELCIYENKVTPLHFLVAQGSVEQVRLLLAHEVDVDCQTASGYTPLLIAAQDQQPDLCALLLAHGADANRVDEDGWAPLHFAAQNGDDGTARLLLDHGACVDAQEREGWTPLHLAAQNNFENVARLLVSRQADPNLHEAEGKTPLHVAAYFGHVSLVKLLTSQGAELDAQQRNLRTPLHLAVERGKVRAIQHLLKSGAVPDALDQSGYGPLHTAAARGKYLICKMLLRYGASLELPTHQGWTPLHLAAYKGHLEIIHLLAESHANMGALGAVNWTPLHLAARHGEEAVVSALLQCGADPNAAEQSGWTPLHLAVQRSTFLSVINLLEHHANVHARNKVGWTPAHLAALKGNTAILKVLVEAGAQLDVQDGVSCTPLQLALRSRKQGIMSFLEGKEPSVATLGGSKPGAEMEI
Chain of MAP kinase-interacting serine/threonine-protein kinase 1 (Homo sapiens) (Q9BUB5 whole entry, looked up): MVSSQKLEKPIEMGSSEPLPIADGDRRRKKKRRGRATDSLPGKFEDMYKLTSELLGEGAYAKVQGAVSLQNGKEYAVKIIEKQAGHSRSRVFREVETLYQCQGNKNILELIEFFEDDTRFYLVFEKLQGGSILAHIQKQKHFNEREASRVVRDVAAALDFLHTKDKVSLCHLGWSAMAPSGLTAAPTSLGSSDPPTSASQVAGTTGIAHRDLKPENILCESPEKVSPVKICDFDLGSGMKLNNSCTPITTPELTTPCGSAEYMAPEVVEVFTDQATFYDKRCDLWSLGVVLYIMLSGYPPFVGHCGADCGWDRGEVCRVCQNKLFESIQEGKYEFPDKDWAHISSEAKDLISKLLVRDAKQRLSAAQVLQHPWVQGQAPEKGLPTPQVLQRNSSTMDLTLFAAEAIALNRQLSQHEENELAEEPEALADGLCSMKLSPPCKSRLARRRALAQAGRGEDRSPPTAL
Chain of Mast/stem cell growth factor receptor Kit (Homo sapiens), P10721 [D816H] (P10721 whole entry D816H): as the sequence (P10721 whole entry V559D) above, with D559V, D816H counted along it
Chain of Serine/threonine-protein kinase WNK2 (Homo sapiens) (Q9Y3S1 whole entry): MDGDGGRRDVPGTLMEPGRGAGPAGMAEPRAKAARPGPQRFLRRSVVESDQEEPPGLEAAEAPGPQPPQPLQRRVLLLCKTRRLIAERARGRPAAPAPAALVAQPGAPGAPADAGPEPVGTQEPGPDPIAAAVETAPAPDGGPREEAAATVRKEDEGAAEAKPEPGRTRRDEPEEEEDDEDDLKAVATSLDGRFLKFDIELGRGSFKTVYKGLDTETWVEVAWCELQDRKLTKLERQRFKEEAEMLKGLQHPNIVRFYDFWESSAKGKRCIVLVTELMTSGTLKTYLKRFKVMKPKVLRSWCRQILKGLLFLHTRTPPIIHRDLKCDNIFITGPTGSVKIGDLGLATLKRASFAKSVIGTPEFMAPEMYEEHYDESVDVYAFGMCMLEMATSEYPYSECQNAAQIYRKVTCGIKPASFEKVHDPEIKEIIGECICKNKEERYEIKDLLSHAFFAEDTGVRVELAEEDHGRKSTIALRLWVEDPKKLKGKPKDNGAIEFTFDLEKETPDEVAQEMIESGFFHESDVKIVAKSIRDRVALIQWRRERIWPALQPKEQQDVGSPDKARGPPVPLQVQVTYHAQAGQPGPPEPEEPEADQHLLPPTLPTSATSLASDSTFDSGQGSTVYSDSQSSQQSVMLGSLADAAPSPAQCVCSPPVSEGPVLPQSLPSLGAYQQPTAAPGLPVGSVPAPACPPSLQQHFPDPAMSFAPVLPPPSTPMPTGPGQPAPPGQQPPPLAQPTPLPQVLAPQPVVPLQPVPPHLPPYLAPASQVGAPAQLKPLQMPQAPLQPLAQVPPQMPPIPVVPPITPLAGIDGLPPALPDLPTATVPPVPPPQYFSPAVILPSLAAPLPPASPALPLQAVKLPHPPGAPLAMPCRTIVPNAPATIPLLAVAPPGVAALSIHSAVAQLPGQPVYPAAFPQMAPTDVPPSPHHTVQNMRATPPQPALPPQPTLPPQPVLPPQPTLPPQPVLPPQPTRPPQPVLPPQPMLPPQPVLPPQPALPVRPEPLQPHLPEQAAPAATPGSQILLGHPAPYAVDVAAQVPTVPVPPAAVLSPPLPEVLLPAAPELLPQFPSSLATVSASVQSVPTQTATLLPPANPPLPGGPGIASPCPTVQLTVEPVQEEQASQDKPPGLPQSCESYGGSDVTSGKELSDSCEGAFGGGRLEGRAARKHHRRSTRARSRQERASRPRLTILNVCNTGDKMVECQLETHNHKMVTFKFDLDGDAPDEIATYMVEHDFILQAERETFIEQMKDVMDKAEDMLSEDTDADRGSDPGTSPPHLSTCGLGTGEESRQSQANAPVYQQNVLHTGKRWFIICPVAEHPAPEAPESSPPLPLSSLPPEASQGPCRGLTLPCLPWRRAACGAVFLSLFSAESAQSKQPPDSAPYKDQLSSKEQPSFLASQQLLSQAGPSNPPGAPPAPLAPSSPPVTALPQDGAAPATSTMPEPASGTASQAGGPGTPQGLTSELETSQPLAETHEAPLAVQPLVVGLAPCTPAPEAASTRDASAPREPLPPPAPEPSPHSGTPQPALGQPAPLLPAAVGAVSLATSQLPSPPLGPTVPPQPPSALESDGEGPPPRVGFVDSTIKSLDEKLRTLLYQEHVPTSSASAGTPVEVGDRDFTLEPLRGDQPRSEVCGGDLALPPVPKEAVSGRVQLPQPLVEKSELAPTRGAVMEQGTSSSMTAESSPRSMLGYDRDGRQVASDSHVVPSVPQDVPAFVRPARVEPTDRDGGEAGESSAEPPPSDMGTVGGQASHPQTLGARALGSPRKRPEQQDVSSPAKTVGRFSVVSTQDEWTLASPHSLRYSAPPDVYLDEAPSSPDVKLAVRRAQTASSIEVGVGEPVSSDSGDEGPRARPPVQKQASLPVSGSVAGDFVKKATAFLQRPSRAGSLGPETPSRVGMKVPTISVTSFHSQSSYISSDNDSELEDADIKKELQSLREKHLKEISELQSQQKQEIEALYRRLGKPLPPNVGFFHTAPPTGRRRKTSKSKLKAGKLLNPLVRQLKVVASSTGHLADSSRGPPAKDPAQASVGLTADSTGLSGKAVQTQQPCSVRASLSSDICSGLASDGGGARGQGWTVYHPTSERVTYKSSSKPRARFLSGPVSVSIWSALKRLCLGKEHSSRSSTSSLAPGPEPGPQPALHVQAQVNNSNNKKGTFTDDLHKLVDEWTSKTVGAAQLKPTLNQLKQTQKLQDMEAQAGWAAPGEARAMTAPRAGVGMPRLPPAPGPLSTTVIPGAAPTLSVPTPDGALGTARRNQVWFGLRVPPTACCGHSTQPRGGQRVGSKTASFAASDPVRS
Chain of Casein kinase I isoform gamma-1 (Homo sapiens) (Q9HCP0 whole entry, looked up, canonical isoform): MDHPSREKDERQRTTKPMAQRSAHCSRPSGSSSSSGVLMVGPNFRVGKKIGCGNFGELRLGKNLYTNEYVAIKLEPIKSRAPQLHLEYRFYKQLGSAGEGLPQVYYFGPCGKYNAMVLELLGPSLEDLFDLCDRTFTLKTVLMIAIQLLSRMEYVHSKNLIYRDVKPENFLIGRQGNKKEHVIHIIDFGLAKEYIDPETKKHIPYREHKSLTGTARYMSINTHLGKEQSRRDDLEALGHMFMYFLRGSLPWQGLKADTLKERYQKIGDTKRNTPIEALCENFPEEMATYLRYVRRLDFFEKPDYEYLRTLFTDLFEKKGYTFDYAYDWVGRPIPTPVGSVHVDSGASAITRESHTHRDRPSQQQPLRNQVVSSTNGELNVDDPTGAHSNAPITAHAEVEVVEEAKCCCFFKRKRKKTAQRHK

Cn1nc(C(=O)NCc2ccc(C(=O)O)cc2)cc1-c1ccc2[nH]ccc2c1 [BI 4395]
inactive: [1] 100% | [2] 79% | [3] 94% | [4] 93% | [5] 98% | [6] 100% | [7] 65% | [8] 88% | [9] 88% | [10] 90% | [11] 84% | [12] 94% | [13] 64% | [14] 100% | [15] 92% | [16] 69% | [17] 91% | [18] 82% | [19] 81% | [20] 83% | [21] 91% | [22] 100% | [23] 88% | [24] 100% | [25] 70% | [26] 100% | [27] 78% | [28] 100% | [29] 100%

CCOC(=O)c1cc2cc(-c3cc(C(=O)NCc4ccc(C(=O)O)cc4)nn3C)ccc2[nH]1 [BI 4394]
inactive: [1] 90% | [2] 95% | [3] 100% | [4] 100% | [5] 94% | [6] 100% | [7] 82% | [8] 96% | [9] 86% | [10] 100% | [11] 100% | [12] 88% | [13] 90% | [14] 100% | [15] 100% | [16] 100% | [17] 100% | [18] 97% | [19] 75% | [20] 100% | [21] 87% | [22] 92% | [23] 81% | [24] 80% | [25] 85% | [26] 86% | [27] 79% | [28] 75% | [29] 85%
